The record followed here is ChEMBL document CHEMBL1201862, “PubChem BioAssay data set” (2004).

Among the test systems are PC-3; Hs-578T; MDA-MB-435; NCI/ADR-RES; HCC 2998; MDA-N; UACC-257; SF-268; SK-OV-3; HL-60; ACHN; KM12; A498; IGROV-1; SN12C; SNB-75; K562; HCT-15; EKVX.
Holding throughout (assay): DTP human tumour cell line panel, 48 h

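Dose response: 5 concentrations. Exposure: 48 h. Format: 96-well plates. Endpoint: linear interpolation; highest concentration if not reached. GI50 = concentration required for 50% inhibition of growth.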 Calls of active or inactive are those of the source. Rule as the data show it: active = GI50 up to about 1.1 µM and inactive = higher. Bounds are passed on as bounds.

As for `N#Cc1c(-c2ccccc2)c(C#N)c(=O)n(NS(=O)(=O)c2ccccc2)c1O`, the GI50 with PC-3, with Hs-578T, in the experiment on MDA-MB-435, with NCI/ADR-RES, with HCC 2998 and with MDA-N was > 100 µM (inactive) in each case. For the same compound, the GI50 in the experiment on UACC-257, with SF-268, with SK-OV-3, in the experiment on HL-60, with ACHN and with KM12 was > 100 µM (inactive) in each case. Moreover, the GI50 – broadly, the concentration that inhibits growth by half – is > 100 µM (inactive) with A498; > 100 µM (inactive) in the experiment with IGROV-1; > 100 µM (inactive) in the experiment with SN12C; > 100 µM (inactive) with SNB-75; > 100 µM (inactive) in the experiment with K562; > 100 µM in the experiment on HCT-15. Further, the GI50 in the experiment on EKVX is > 100 µM (inactive).
Take `C=CCSSCC=C`: the GI50 in the experiment with PC-3 was 39.8 µM (inactive); with Hs-578T it was 27.9 µM (inactive); in the experiment on MDA-MB-435, 32.1 µM (inactive); in the experiment on NCI/ADR-RES, 28.1 µM (inactive); in the experiment with HCC 2998 it was > 100 µM (inactive); with MDA-N, 19.8 µM (inactive). In addition, the GI50 in the experiment with UACC-257 is 32.8 µM (inactive); in the experiment with SF-268, 47.9 µM (inactive); in the experiment with SK-OV-3, 90.4 µM (inactive); in the experiment on HL-60, 3.49 µM (inactive); in the experiment with ACHN it was > 73.6 µM (inactive); in the experiment with KM12, 68.9 µM (inactive). The GI50 with A498 is > 100 µM (inactive); in the experiment on IGROV-1, > 71.6 µM (inactive); in the experiment on SN12C, 36.7 µM (inactive); in the experiment on SNB-75 it was 60.8 µM (inactive); in the experiment with K562, 5.5 µM (inactive); in the experiment with HCT-15, 38.5 µM. The GI50 in the experiment with EKVX is > 100 µM (inactive).
Turning to `Cc1cccc2c1[C@]13OC(C)[C@]4(C)CC5OC(=O)[C@@]1(C)[C@@H]5[C@]34C(=O)O2` (stereo partly specified), the GI50 in the experiment on PC-3, in the experiment on Hs-578T, with MDA-MB-435, in the experiment with NCI/ADR-RES, in the experiment with HCC 2998 and in the experiment with MDA-N was > 100 µM (inactive) throughout. For the same compound, the GI50 with UACC-257, in the experiment with SF-268, in the experiment with SK-OV-3, in the experiment with HL-60, in the experiment on ACHN and in the experiment with KM12 was > 100 µM (inactive) throughout. Further, the GI50 in the experiment on A498 is > 100 µM (inactive); in the experiment on IGROV-1, > 100 µM (inactive); in the experiment on SN12C, > 100 µM (inactive); in the experiment on SNB-75, > 100 µM (inactive); in the experiment on K562 it was > 100 µM (inactive); in the experiment on HCT-15 it was > 100 µM. Further, the GI50 with EKVX is > 100 µM (inactive).
In the case of `Cc1nc2c3c(ncn2n1)Oc1c(c(-c2ccccc2)nn1-c1ccccc1)C3c1ccc(Cl)cc1` (stereo unspecified), the GI50 in the experiment with PC-3 is > 100 µM (inactive); in the experiment with Hs-578T, 23.2 µM (inactive); in the experiment on MDA-MB-435, > 100 µM (inactive); in the experiment on NCI/ADR-RES, > 100 µM (inactive); with HCC 2998 it was > 100 µM (inactive); in the experiment on MDA-N it was > 100 µM (inactive). The GI50 was > 100 µM (inactive) in the experiment with UACC-257; 47.2 µM (inactive) with SF-268; 43.3 µM (inactive) in the experiment on SK-OV-3; > 10 µM (inactive) in the experiment on HL-60; 40.8 µM (inactive) in the experiment with ACHN; > 100 µM (inactive) in the experiment on KM12. Moreover, the GI50 was > 100 µM (inactive) in the experiment on A498; > 100 µM (inactive) in the experiment on IGROV-1; > 100 µM (inactive) in the experiment on SN12C; 39.6 µM (inactive) in the experiment on SNB-75; > 100 µM (inactive) with K562; > 100 µM in the experiment on HCT-15. Besides, the GI50 with EKVX is > 100 µM (inactive).
